{"source": "patent US20070089847A1", "about": "“Anti-microbial paper products having a substituted 1,2-dihydroquinoline” (Novus International, Inc., priority 2005, published 2007)", "note": "Counter-ions that a name gives are not always drawn."}
{"tested_on": "Aspergillus niger ATCC 9642 and Aspergillus flavus ATCC 9643", "experiment": "In vitro disk assay of antifungal properties, agar plates containing test agent (Example 3)", "type": "cell-based", "conditions": "48 hours at 25° C.", "method": "In this assay, paper disks were soaked in a fungal solution and placed on the surface of agar plates containing different concentration of the test agent. The radius of fungal growth radiating from each disk was considered indicative of the degree of inhibition by the agent relative to a control.\nThe test agents were diluted in DMSO or water and tested at several different concentrations. The test agents were added to the agar solution after sterilization, but prior to solidification. […] The plates were incubated for 48 hours at 25° C. The zones of fungal growth (or no growth) were analyzed and the minimum total inhibitory concentration (%) was estimated for each agent.", "units": {"Minimum Total Inhibitory Concentration (%)": "%"}}
{"compound": "O=C(O)CO", "note": "[Glycolic Acid]", "Minimum Total Inhibitory Concentration (%)": ">0.5"}
{"compound": "CC(=O)C(C)O", "note": "(centres unmarked) [3-Hydroxy-2-Butanone]", "Minimum Total Inhibitory Concentration (%)": ">0.5"}
{"compound": "CCC(=O)O", "note": "[Proprionic Acid]", "Minimum Total Inhibitory Concentration (%)": 0.2}
{"compound": "COc1cc(C=O)ccc1O", "note": "[Vanillin]", "Minimum Total Inhibitory Concentration (%)": 0.1}
{"compound": "O=C(O)CCCCC1CCSS1", "note": "(stereo not drawn) [Alpha Lipoic Acid]", "Minimum Total Inhibitory Concentration (%)": 0.1}
{"compound": "CC(O)C(=O)O", "note": "(centres unmarked) [Lactic Acid]", "Minimum Total Inhibitory Concentration (%)": ">0.5"}
{"compound": "O=P([O-])(O)O.[Na+]", "note": "[Sodium bi-Phosphate]", "Minimum Total Inhibitory Concentration (%)": ">0.5"}
{"compound": "O=C(O)[C@H](O)[C@@H](O)[C@H](O)[C@H](O)CO", "note": "[Gluconic Acid]", "Minimum Total Inhibitory Concentration (%)": ">0.5"}
{"compound": "O=C(O)/C=C\\C(=O)O", "note": "[Maleic Acid]", "Minimum Total Inhibitory Concentration (%)": 0.5}
{"compound": "Cl", "note": "[HCl]", "Minimum Total Inhibitory Concentration (%)": 0.5}
{"compound": "O=P1([O-])OP(=O)([O-])OP(=O)([O-])OP(=O)([O-])OP(=O)([O-])OP(=O)([O-])O1.[Na+].[Na+].[Na+].[Na+].[Na+].[Na+]", "note": "[Sodium Hexametaphosphate]", "Minimum Total Inhibitory Concentration (%)": ">0.5"}
{"compound": "CCCCC(=O)O", "note": "[Valeric Acid]", "Minimum Total Inhibitory Concentration (%)": 0.1}
{"compound": "O=C([O-])c1ccccc1.[Na+]", "note": "[Sodium Benzoate]", "Minimum Total Inhibitory Concentration (%)": ">0.5"}
{"compound": "N[C@@H](Cc1c[nH]c2ccccc12)C(=O)O", "note": "[Tryptophan]", "Minimum Total Inhibitory Concentration (%)": ">0.5"}
{"compound": "O=C(O)C(O)C(O)C(=O)O", "note": "(centres unmarked) [Tartaric Acid]", "Minimum Total Inhibitory Concentration (%)": ">0.5"}
{"compound": "Cc1cc(C(C)(C)C)c(O)c(C(C)(C)C)c1", "note": "[BHT (Butylated HydroxyToluene), Butylated HydroxyToluene]", "Minimum Total Inhibitory Concentration (%)": ">0.5"}
{"compound": "O=C(O)CN(CCN(CC(=O)O)CC(=O)O)CC(=O)O", "note": "[EDTA]", "Minimum Total Inhibitory Concentration (%)": 0.02}
{"compound": "N[C@@H](CS)C(=O)O", "note": "[Cysteine]", "Minimum Total Inhibitory Concentration (%)": ">0.5"}
{"compound": "CCCCCCCCCCCCCCCC(=O)OC[C@H](O)[C@H]1OC(=O)C(O)=C1O", "note": "[Ascorbyl Palmitate]", "Minimum Total Inhibitory Concentration (%)": ">0.5"}
{"compound": "O=C(O)CCCCC(=O)O", "note": "[Adipic Acid]", "Minimum Total Inhibitory Concentration (%)": ">0.5"}
{"compound": "CC(=O)C1C(=O)C=C(C)OC1=O", "note": "(centres unmarked) [Dehydroacetic Acid]", "Minimum Total Inhibitory Concentration (%)": 0.01}
{"compound": "O=C(O)c1cc(O)c(O)c(O)c1", "note": "[Gallic Acid]", "Minimum Total Inhibitory Concentration (%)": ">0.5"}
{"compound": "CC(=O)O.CC(=O)[O-].[Na+]", "note": "[Sodium Diacetate]", "Minimum Total Inhibitory Concentration (%)": 0.5}
{"compound": "CCC(=O)[O-].[Na+]", "note": "[Sodium Proprionate]", "Minimum Total Inhibitory Concentration (%)": ">0.5"}
{"compound": "O=C([O-])c1ccccc1.[K+]", "note": "[Potassium Benzoate]", "Minimum Total Inhibitory Concentration (%)": ">0.5"}
{"compound": "O=Cc1ccc2c(c1)OCO2", "note": "[Piperonal]", "Minimum Total Inhibitory Concentration (%)": 0.1}
{"compound": "C=C(C)C1CC=C(C)C(=O)C1", "note": "(centres unmarked) [Carvone]", "Minimum Total Inhibitory Concentration (%)": 0.1}
{"compound": "CCCCCCCCOC(=O)c1cc(O)c(O)c(O)c1", "note": "[Octyl Gallate]", "Minimum Total Inhibitory Concentration (%)": ">0.5"}
{"compound": "CC(O)C(=O)[O-].[Na+]", "note": "(centres unmarked) [Sodium Lactate]", "Minimum Total Inhibitory Concentration (%)": ">0.5"}
{"compound": "CC(=O)[O-].CC(=O)[O-].[Ca+2]", "note": "[Calcium Acetate]", "Minimum Total Inhibitory Concentration (%)": ">0.5"}
{"compound": "CSCC[C@H](N)C(=O)O", "note": "[Methionine]", "Minimum Total Inhibitory Concentration (%)": ">0.5"}
{"compound": "Stearyl Citrate", "Minimum Total Inhibitory Concentration (%)": ">0.5"}
{"compound": "COc1ccc(O)c(C(C)(C)C)c1", "note": "[BHA (Butylated HydroxyAnisole), Butylated HydroxyAnisole]", "Minimum Total Inhibitory Concentration (%)": 0.025}
{"compound": "CCCCCCCCCC=O", "note": "[Decanal]", "Minimum Total Inhibitory Concentration (%)": ">0.5"}
{"compound": "CC(C)=CCCC(C)=CC=O", "note": "[Citral]", "Minimum Total Inhibitory Concentration (%)": 0.1}
{"compound": "O=C(O)CCO", "note": "[3-Hydroxypropionic Acid]", "Minimum Total Inhibitory Concentration (%)": ">0.5"}
{"compound": "O=C(O)c1ccccc1", "note": "[Benzoic Acid]", "Minimum Total Inhibitory Concentration (%)": 0.1}
{"compound": "CC(=O)[O-].[K+]", "note": "[Potassium Acetate]", "Minimum Total Inhibitory Concentration (%)": ">0.5"}
{"compound": "O=Cc1ccccc1", "note": "[Benzaldehyde]", "Minimum Total Inhibitory Concentration (%)": 0.5}
{"compound": "CC(=O)C(C)=O", "note": "[Diacetyl]", "Minimum Total Inhibitory Concentration (%)": 0.1}
{"compound": "O=S(=O)([O-])[O-].[Cu+2]", "note": "[Copper Sulfate]", "Minimum Total Inhibitory Concentration (%)": 0.05}
{"compound": "CCCOC(=O)c1cc(O)c(O)c(O)c1", "note": "[Propyl Gallate]", "Minimum Total Inhibitory Concentration (%)": ">0.5"}
{"compound": "O=C1CCO1", "note": "[Beta-Propiolactone]", "Minimum Total Inhibitory Concentration (%)": 0.1}
{"compound": "O=C(O)/C=C/C(=O)O", "note": "[Fumaric Acid]", "Minimum Total Inhibitory Concentration (%)": ">0.5"}
{"compound": "NCC(=O)O", "note": "[Glycine]", "Minimum Total Inhibitory Concentration (%)": ">0.5"}
{"compound": "O=S([O-])S(=O)(=O)[O-].[Na+].[Na+]", "note": "[Sodium Metabisulfite]", "Minimum Total Inhibitory Concentration (%)": 0.1}
{"compound": "CC(=O)Oc1c(C)c(C)c2c(c1C)CCC(C)(CCC[C@H](C)CCC[C@H](C)CCCC(C)C)O2", "note": "(stereo partly drawn) [Alpha Tocopherol Acetate]", "Minimum Total Inhibitory Concentration (%)": ">0.5"}
{"compound": "CCCOC(=O)c1ccc(O)cc1", "note": "[Propyl Paraben]", "Minimum Total Inhibitory Concentration (%)": 0.015}
{"compound": "Cc1c(C)c2c(c(C)c1O)CC[C@@](C)(CCC[C@H](C)CCC[C@H](C)CCCC(C)C)O2", "note": "[Alpha Tocopherol]", "Minimum Total Inhibitory Concentration (%)": ">0.5"}
{"compound": "CCCCCCCCCCCCOC(=O)CCSCCC(=O)OCCCCCCCCCCCC", "note": "[Dilauryl Thiodipropionate]", "Minimum Total Inhibitory Concentration (%)": ">0.5"}
{"compound": "C=CCc1ccc(O)c(OC)c1", "note": "[Eugenol]", "Minimum Total Inhibitory Concentration (%)": 0.05}
{"compound": "Cc1cc(O)cc2c1O[C@](C)(CCC[C@H](C)CCC[C@H](C)CCCC(C)C)CC2", "note": "[Delta Tocopherol]", "Minimum Total Inhibitory Concentration (%)": ">0.5"}
{"compound": "O=P([O-])([O-])OP(=O)([O-])[O-].[Na+].[Na+].[Na+].[Na+]", "note": "[Sodium Pyrophosphate]", "Minimum Total Inhibitory Concentration (%)": ">0.5"}
{"compound": "CC=O", "note": "[Acetaldehyde]", "Minimum Total Inhibitory Concentration (%)": ">0.2"}
{"compound": "OO", "note": "[Hydrogen Peroxide]", "Minimum Total Inhibitory Concentration (%)": 0.1}
{"compound": "O=S([O-])O.[Na+]", "note": "[Sodium Bisulfite]", "Minimum Total Inhibitory Concentration (%)": 0.2}
{"compound": "OB(O)O", "note": "[Boric Acid]", "Minimum Total Inhibitory Concentration (%)": 0.5}
{"compound": "CC(C)(C)c1cc(O)ccc1O", "note": "[TBHQ (Tert-ButylHydroQuinone), Tert-ButylHydroQuinone]", "Minimum Total Inhibitory Concentration (%)": 0.1}
{"compound": "O=S(=O)(O)O", "note": "[Sulfuric Acid]", "Minimum Total Inhibitory Concentration (%)": 0.1}
{"compound": "CC(=O)[O-].[Na+]", "note": "[Sodium Acetate]", "Minimum Total Inhibitory Concentration (%)": ">0.5"}
{"compound": "O=C(O)CC(=O)O", "note": "[Malonic Acid]", "Minimum Total Inhibitory Concentration (%)": ">0.5"}
{"compound": "CCC(=O)[O-].CCC(=O)[O-].[Ca+2]", "note": "[Calcium Propionate]", "Minimum Total Inhibitory Concentration (%)": ">0.5"}
{"compound": "C=C(C)[C@H]1CC=C(C)CC1", "note": "[Limonene]", "Minimum Total Inhibitory Concentration (%)": ">0.5"}
{"compound": "CC(=O)O", "note": "[Acetic Acid]", "Minimum Total Inhibitory Concentration (%)": 0.2}
{"compound": "CCO", "note": "[Ethanol]", "Minimum Total Inhibitory Concentration (%)": ">0.5"}
{"compound": "O=C(O)CC(O)(CC(=O)O)C(=O)O", "note": "[Citric Acid]", "Minimum Total Inhibitory Concentration (%)": ">0.5"}
{"compound": "O=C1O[C@H]([C@@H](O)CO)C(O)=C1O", "note": "[Ascorbic Acid]", "Minimum Total Inhibitory Concentration (%)": ">0.5"}
{"compound": "O=C([O-])[C@H](O)[C@@H](O)[C@H](O)[C@H](O)CO.[Na+]", "note": "[Sodium Gluconate]", "Minimum Total Inhibitory Concentration (%)": ">0.5"}
{"compound": "C/C=C/C=C/C(=O)[O-].[K+]", "note": "[Potassium Sorbate]", "Minimum Total Inhibitory Concentration (%)": ">0.5"}
{"compound": "CCCCCCCCCCCCOC(=O)c1cc(O)c(O)c(O)c1", "note": "[Dodecyl Gallate]", "Minimum Total Inhibitory Concentration (%)": ">0.5"}
{"compound": "O=S([O-])[O-].[Na+].[Na+]", "note": "[Sodium Sulfite]", "Minimum Total Inhibitory Concentration (%)": ">0.5"}
{"compound": "O=CC=Cc1ccccc1", "note": "[Cinnamaldehyde]", "Minimum Total Inhibitory Concentration (%)": "<0.005"}
{"compound": "COC(=O)c1ccc(O)cc1", "note": "[Methyl Paraben]", "Minimum Total Inhibitory Concentration (%)": 0.5}
{"compound": "O=P(O)(O)O", "note": "[Phosphoric Acid]", "Minimum Total Inhibitory Concentration (%)": 0.5}
{"compound": "O=S([O-])([O-])=S.[Na+].[Na+]", "note": "[Sodium Thiosulfate]", "Minimum Total Inhibitory Concentration (%)": ">0.5"}
{"compound": "CSCCC(O)C(=O)O", "note": "(centres unmarked) [2-hydroxy-4(methylthio)butanoic acid]", "Minimum Total Inhibitory Concentration (%)": ">0.5"}
{"compound": "CCCC(=O)O", "note": "[Butyric Acid]", "Minimum Total Inhibitory Concentration (%)": 0.2}
{"compound": "O=C([O-])CC(O)(CC(=O)[O-])C(=O)[O-].[Na+].[Na+].[Na+]", "note": "[Sodium Citrate]", "Minimum Total Inhibitory Concentration (%)": ">0.5"}
{"compound": "NCCCC[C@H](N)C(=O)O", "note": "[Lysine]", "Minimum Total Inhibitory Concentration (%)": ">0.5"}
{"compound": "CCCCCCCCCCCCCCCC[n+]1ccccc1.[Cl-]", "note": "[Hexadecylpyridinium Cl]", "Minimum Total Inhibitory Concentration (%)": 0.2}
